Patent US20210030829A1, “METHODS FOR TREATMENT OF CANCER AND ENHANCEMENT OF NANOPARTICLE ACCUMULATION IN TISSUES” (University of Louisville Research Foundation, Inc., priority 2018, published 2021)

Design: species or system male C57BL/6 mice
Settings: mouse, in vivo

**Q.** For `CCCCCCCCCCCCCCCCCCN1/C(=C/C=C/C=C/C=C/C2=[N+](CCCCCCCCCCCCCCCCCC)c3ccccc3C2(C)C)C(C)(C)c2ccccc21.[I-]` [free DiR, 1,1-dioctadecyl-3,3,3′,3′-tetramethylindotricarbocyanine-iodide], which Visible abnormality is on record?
**A.** Its Visible abnormality is “No visible abnormality”.
